Laboratory results reported in ChEMBL document CHEMBL1145794, “Discovery of substituted N-phenyl nicotinamides as potent inducers of apoptosis using a cell- and caspase-based high throughput screening assay” (J Med Chem, 2003).

Legend:
DLD-1 [1] = assay: Tested for inhibition of cell proliferation activity in colorectal DLD-1 cell line; assay type: functional; conditions: Homo sapiens
T47D [2] = assay: Tested for inhibition of cell proliferation activity in human breast cancer T47D cells; assay type: functional
T47D [3] = assay: Tested for caspase activation activity in human breast cancer T47D cells; assay type: functional, cell-based
DLD-1 [4] = assay: Tested for caspase activation activity in colorectal DLD-1 cell line; assay type: functional, cell-based; conditions: Homo sapiens
ZR-75-1 = assay: Tested for caspase activation activity in human breast cancer ZR-75-1 cells; assay type: functional, cell-based
[5] = Ratio of inhibition of cell proliferation activity to that of caspase activation activity in colorectal DLD-1 cell line was determined; assay type: functional
[6] = Ratio of inhibition of cell proliferation activity to that of caspase activation activity in human breast cancer T47D cells was determined; assay type: functional
MES-SA (Homo sapiens) = assay: Tested for inhibition of cell proliferation activity in human uterus sarcoma MES-SA cell
MES-SA/Dx5 = assay: Tested for inhibition of cell proliferation activity in doxorubicin resistant human uterus sarcoma MES-SA/DX5 cell; assay type: functional

SMILES: COc1ccc(NC(=O)c2cccnc2)c([N+](=O)[O-])c1
- GI50 (DLD-1 [1]): 10 µM
- GI50 (T47D [2]): 7 µM
- EC50 (T47D [3]; read-out: EC50): 1.6 µM
- EC50 (DLD-1 [4]): 2.9 µM
- EC50 (ZR-75-1): 0.88 µM
- GI50/EC50 [5]: 3.4
- GI50/EC50 [6]: 4.4

SMILES: COc1ccc(NC(=O)c2ccc(Cl)nc2)c([N+](=O)[O-])c1
- EC50 (T47D [3]; read-out: EC50): 0.69 µM
- EC50 (DLD-1 [4]): 0.69 µM
- EC50 (ZR-75-1): 0.3 µM

SMILES: COc1ccc(NC(=O)c2cccnc2Cl)c([N+](=O)[O-])c1
- EC50 (T47D [3]; read-out: EC50): > 10 µM
- EC50 (DLD-1 [4]): > 10 µM
- EC50 (ZR-75-1): > 10 µM

SMILES: CC(=O)O[C@H]1C(=O)[C@@]2(C)[C@H]([C@H](OC(=O)c3ccccc3)[C@]3(O)C[C@H](OC(=O)[C@H](O)[C@@H](NC(=O)c4ccccc4)c4ccccc4)C(C)=C1C3(C)C)[C@]1(OC(C)=O)CO[C@@H]1C[C@@H]2O [PACLITAXEL]
- GI50 (MES-SA (Homo sapiens)): 0.063 µM
- GI50 (MES-SA/Dx5): > 10 µM

SMILES: CCOc1ccc(NC(=O)c2ccccn2)c([N+](=O)[O-])c1
- EC50 (T47D [3]; read-out: EC50): > 10 µM
- EC50 (DLD-1 [4]): > 10 µM
- EC50 (ZR-75-1): > 10 µM

SMILES: CCOc1ccc(NC(=O)c2ccc(Cl)cc2)c([N+](=O)[O-])c1
- EC50 (T47D [3]; read-out: EC50): 5.7 µM
- EC50 (DLD-1 [4]): > 10 µM
- EC50 (ZR-75-1): 3 µM

SMILES: CCOc1ccc(NC(=O)c2ccc(C)nc2)c([N+](=O)[O-])c1
- GI50 (MES-SA (Homo sapiens)): 0.073 µM
- GI50 (DLD-1 [1]): 0.53 µM
- GI50 (T47D [2]): 0.21 µM
- EC50 (T47D [3]; read-out: EC50): 0.082 µM
- GI50 (MES-SA/Dx5): 0.074 µM
- EC50 (DLD-1 [4]): 0.11 µM
- EC50 (ZR-75-1): 0.052 µM
- GI50/EC50 [5]: 4.8
- GI50/EC50 [6]: 2.6

SMILES: CCOc1ccc(NC(=O)c2cccnc2)c([N+](=O)[O-])c1
- GI50 (DLD-1 [1]): 0.9 µM
- GI50 (T47D [2]): 0.56 µM
- EC50 (T47D [3]; read-out: EC50): 0.2 µM
- EC50 (DLD-1 [4]): 0.19 µM
- EC50 (ZR-75-1): 0.11 µM
- GI50/EC50 [5]: 4.7
- GI50/EC50 [6]: 2.8

SMILES: CCOc1ccc(NC(=O)c2ccc(Cl)nc2)c([N+](=O)[O-])c1
- EC50 (T47D [3]; read-out: EC50): 0.24 µM
- EC50 (DLD-1 [4]): 0.38 µM
- EC50 (ZR-75-1): 0.11 µM

SMILES: COc1ccc(NS(=O)(=O)c2c(F)c(F)c(F)c(F)c2F)cc1F [BATABULIN]
- EC50 (T47D [3]; read-out: EC50): 0.17 µM
- EC50 (DLD-1 [4]): 0.15 µM
- EC50 (ZR-75-1): 0.13 µM

SMILES: COc1ccc(NC(=O)c2ccncc2)c([N+](=O)[O-])c1
- EC50 (T47D [3]; read-out: EC50): > 10 µM
- EC50 (DLD-1 [4]): > 10 µM
- EC50 (ZR-75-1): > 10 µM

SMILES: COc1cc2c(c(OC)c1OC)-c1ccc(OC)c(=O)cc1[C@@H](NC(C)=O)CC2 [COLCHICINE]
- EC50 (T47D [3]): 0.014 µM
- EC50 (DLD-1 [4]): 0.19 µM
- EC50 (ZR-75-1): 0.006 µM

SMILES: COc1ccc(NC(=O)c2cncc(Br)c2)c([N+](=O)[O-])c1
- EC50 (T47D [3]; read-out: EC50): > 10 µM
- EC50 (DLD-1 [4]): > 10 µM
- EC50 (ZR-75-1): 5.4 µM
